Laboratory results taken from patent US4231928A, “Antibacterial agents” (priority 1979, dated 1980).

Experiments:
[1] = test system: D. pneumoniae; test: Tube dilution (Nutrient broth), D. pneumoniae; assay type: cell-based; details: Streptococcus pneumoniae, Dp-4 D. pneumoniae A9585, Table 3
Protocol: (§1) The MIC's of BB-P598 against various organisms were also determined by the tube dilution method (Nutrient broth), and the results, compared with sulbenicillin, are shown in Table 3.

[2] = test system: P. aeruginosa A9843; test: MIC of the infecting strain with the in vivo test, P. aeruginosa A9843; assay type: cell-based; details: Pseudomonas aeruginosa, Table 7
[3] = test system: S. aureus and the Gram-negative organisms except Pseudomonas; test: Agar dilution, activity against S. aureus and Gram-negative organisms except Pseudomonas; assay type: cell-based; details: most of the 6 strains of S. aureus and 19 Gram-negative strains except Pseudomonas
Protocol: (§2) The Minimum Inhibitory Concentrations (MIC) for sodium 6-[D-(-)-α-phenyl-α-(7-hydroxy-4-oxo-4H-pyrimido[1,2-b]pyridazin-3-ylcarboxamido)acetamido]penicillanate (BB-P598) and sulbenicillin were determined by the serial twofold agar dilution method using Steers' apparatus on Mueller-Hinton agar plates against 31 test organisms for the primary screening (Table 1) and also against 61 strains of Pseudomonas aeruginosa for the secondary evaluation (Table 2).

[4] = test system: P. aeruginosa A9843; test: Effect of inoculum size on MIC, serial tube dilution (Nutrient Broth); assay type: cell-based; details: for MIC: Pseudomonas aeruginosa
Protocol: (§3) The effect of inoculum size of the MIC and MBC (Minimum Bacteriacidal Concentration) of BB-P598 against P. aeruginosa A9843 also was determined. The MIC's were determined by the serial tube dilution method in Nutrient Broth using four levels of inoculum size (5.3×10^3, 5.3×10^4, 5.3×10^5 and 5.3×10^6 cells/ml), along with sulbenicillin as a reference standard.

[5] = test system: S. marcescens; test: Tube dilution (Nutrient broth), S. marcescens; assay type: cell-based; details: Serratia marcescens; Sm-1 S. marcescens A20019; Nutrient broth; Table 3; read-out: MIC
Protocol: as §1

[6] = test system: Pseudomonas; test: Agar dilution, activity against Pseudomonas strains; assay type: cell-based
Protocol: as §2

[7] = test system: E. coli Juhl; test: MIC of the infecting strain with the in vivo test, E. coli Juhl; assay type: cell-based; details: Escherichia coli, Table 7
[8] = test system: S. aureus Smith; test: In vivo activity in experimental infection in mice, S. aureus Smith; details: single; for Survival/Tested: 100×LD50 challenge
Protocol: (§4) BB-P598 was evaluated in vivo in experimental infections in mice. The pathogenic bacteria employed were P. aeruginosa A9843, E. coli Juhl and S. aureus Smith. Mice were challenged intraperitoneally with a 100×LD50 dose of the pathogens in a 5% suspension of hog gastric mucin. The penicillin was administered subcutaneously as a single treatment, just after the bacterial challenge.
(§5) PD50 = Protective Dose50 , i.e. the dose required to give
(§6) protection to 50% of the infected mice.

[9] = test system: K. pneumoniae; test: Tube dilution (Nutrient broth), K. pneumoniae; assay type: cell-based; details: Klebsiella pneumoniae
[10] = test system: P. aeruginosa; test: Tube dilution (Nutrient broth), P. aeruginosa; assay type: cell-based; details: Pseudomonas aeruginosa
Protocol: as §1

[11] = test system: P. morganii; test: Tube dilution (Nutrient broth), P. morganii; assay type: cell-based; details: Morganella morganii; Pg-8 P. morganii A15153; Nutrient broth; Table 3; read-out: MIC
Protocol: as §1

[12] = test system: P. aeruginosa A9843; test: In vivo activity in experimental infection in mice, P. aeruginosa A9843; details: single; for Survival/Tested: 100×LD50 challenge
Protocol: as §4, §5, §6

[13] = test system: S. pyogenes; test: Tube dilution (Nutrient broth), S. pyogenes; assay type: cell-based; details: Streptococcus pyogenes, Sp-3 S. pyogenes A9604, Table 3
Protocol: as §1

[14] = test system: P. aeruginosa A9843; test: Effect of inoculum size on MBC and MBC/MIC ratio; assay type: cell-based; details: Table 5; for MBC: Pseudomonas aeruginosa, 99% killed
Protocol: as §3
Subsequent to the above MIC determinations, aliquots from the non-turbid tubes were added to Nutrient Agar plates to determine the MBC value. The MBC was assigned to the lowest concentration which killed 99% of the original cell population.

[15] = test system: P. mirabilis; test: Tube dilution (Nutrient broth), P. mirabilis; assay type: cell-based; details: Proteus mirabilis, Pm-2 P. mirabilis A9900, Table 3
Protocol: as §1

[16] = test system: E. coli Juhl; test: In vivo activity in experimental infection in mice, E. coli Juhl; details: single; for Survival/Tested: 100×LD50 challenge
Protocol: as §4, §5, §6

[17] = test system: E. cloacae; test: Tube dilution (Nutrient broth), E. cloacae; assay type: cell-based; details: Enterobacter cloacae, El-1 E. cloacae A9656, Table 3
Protocol: as §1

[18] = test system: S. enteritidis; test: Tube dilution (Nutrient broth), S. enteritidis; assay type: cell-based; details: Salmonella enterica, Se-1 S. enteritidis A9531, Table 3
Protocol: as §1

[19] = test system: E. coli; test: Tube dilution (Nutrient broth), E. coli; assay type: cell-based; details: Escherichia coli
Protocol: as §1

[20] = test system: S. aureus; test: Tube dilution (Nutrient broth), S. aureus; assay type: cell-based; details: Staphylococcus aureus
Protocol: as §1

[21] = test system: S. aureus Smith; test: MIC of the infecting strain with the in vivo test, S. aureus Smith; assay type: cell-based; details: Staphylococcus aureus, Table 7, read-out: MC

## CC1(C)S[C@@H]2[C@H](NC(=O)[C@H](NC(=O)c3cnc4ccc(O)nn4c3=O)c3ccccc3)C(=O)N2[C@H]1C(=O)O [BB-P598, sodium 6-[D-(-)-α-phenyl-α-(7-hydroxy-4-oxo-4H-pyrimido[1,2-b]pyridazin-3-ylcarboxamido)acetamido]penicillanate]
[1]
  MIC: 0.01 µg/mL
[2]
  MIC: 6.3 µg/mL
[3]
  activity relative to sulbenicillin (in words): equal to or less active than sulbenicillin
[4]; A9843, inoculum 5.3 × 10^3 cell/ml, Nutrient Broth, Table 4, read-out: MIC
  MIC: 6.3 µg/mL
[4]; A9843, inoculum 5.3 × 10^3 cell/ml, Table 5, read-out: MIC
  MIC: 6.3 µg/mL
[4]; A9843, inoculum 5.3 × 10^4 cell/ml, Nutrient Broth, Table 4, read-out: MIC (a)
  MIC: 12.5 µg/mL
[4]; A9843, inoculum 5.3 × 10^4 cell/ml, Table 5, read-out: MIC
  MIC: 12.5 µg/mL
[4]; A9843, inoculum 5.3 × 10^5 cell/ml, Nutrient Broth, Table 4, read-out: MIC (b)
  MIC: ≤ 25 µg/mL
[4]; A9843, inoculum 5.3 × 10^6 cell/ml, Nutrient Broth, Table 4, read-out: MIC (c)
  MIC: > 100 µg/mL
[4]; inoculum 5.3 × 10^5 / 5.3 × 10^4 cell/ml, Table 4
  MIC ratio b/a: 2
[4]; inoculum 5.3 × 10^6 / 5.3 × 10^4 cell/ml, Table 4
  MIC ratio c/a: > 8
[5]
  MIC: 50 µg/mL
[6]; 6 strains of Pseudomonas in Table 1
  mean % relative activity to sulbenicillin: 713%
[6]; Pseudomonas
  activity relative to sulbenicillin (in words): significantly more active than sulbenicillin
[7]
  MIC: 25 µg/mL
[8]; 1.6 mg/kg sc
  Survival/Tested: 0/5
[8]; 6.3 mg/kg sc
  Survival/Tested: 5/5
[8]; 25 mg/kg sc
  Survival/Tested: 5/5
[8]; 100 mg/kg sc
  Survival/Tested: 5/5
[8]; Staphylococcus aureus, sc, dose required to protect 50% of the infected mice, read-out: PD50
  ED50: 3.1 mg/kg
[9]; Kp-3 K. pneumoniae A9977, Table 3
  MIC: 12.5 µg/mL
[9]; Kp-4 K. pneumoniae A15130, Table 3
  MIC: > 100 µg/mL
[10]; Pa-13 P. aeruginosa A9843, Table 3
  MIC: 6.3 µg/mL
[10]; Pa-19 P. aeruginosa A20229, Table 3
  MIC: 6.3 µg/mL
[10]; Pa-57 P. aeruginosa A20546, Table 3
  MIC: 3.1 µg/mL
[11]
  MIC: > 100 µg/mL
[12]; 1.6 mg/kg sc
  Survival/Tested: 0/5
[12]; 6.3 mg/kg sc
  Survival/Tested: 1/5
[12]; 25 mg/kg sc
  Survival/Tested: 1/5
[12]; 100 mg/kg sc
  Survival/Tested: 3/5
[12]; Pseudomonas aeruginosa, A9843, sc, dose required to protect 50% of the infected mice, read-out: PD50
  ED50: 54 mg/kg
[13]
  MIC: 0.08 µg/mL
[14]; A9843, inoculum 5.3 × 10^3 cell/ml
  MBC: 50 µg/mL
[14]; A9843, inoculum 5.3 × 10^4 cell/ml
  MBC: > 100 µg/mL
[14]; inoculum 5.3 × 10^3 cell/ml
  MBC/MIC: 8
[14]; inoculum 5.3 × 10^4 cell/ml
  MBC/MIC: > 8
[15]
  MIC: 6.3 µg/mL
[16]; 1.6 mg/kg sc
  Survival/Tested: 0/5
[16]; 6.3 mg/kg sc
  Survival/Tested: 1/5
[16]; 25 mg/kg sc
  Survival/Tested: 2/5
[16]; 100 mg/kg sc
  Survival/Tested: 3/5
[16]; Escherichia coli, sc, dose required to protect 50% of the infected mice, read-out: PD50
  ED50: 40 mg/kg
[17]
  MIC: 100 µg/mL
[18]
  MIC: 3.1 µg/mL
[19]; Ec-1 E. coli NIHJ, Table 3
  MIC: 6.3 µg/mL
[19]; Ec-58 E. coli A9675, Table 3
  MIC: 50 µg/mL
[20]; Sa-2 S. aureus Smith +50% serum, Table 3
  MIC: 1.6 µg/mL
[20]; Sa-11 S. aureus BX-1633 A9606, Table 3
  MIC: 50 µg/mL
[20]; Sa-44 S. aureus A15097, Table 3
  MIC: 100 µg/mL
[21]
  MIC: 3.1 µg/mL
